Measured values from publication PMC11876671, “Investigating blood–brain barrier penetration and neurotoxicity of natural products for central nervous system drug development” (Scientific Reports, 2025).
Where two headings read alike, the source gives them in different places.

Experiments:
[1] = tested on: GFP-labeled iPSC-derived human cortical glutamatergic neurons; assay: cells; type: cell-based; conditions: for AC50: Homo sapiens, Neuron, Table S1, total neurite length, 48 hr, head prints no unit, µM per Table 1 and Fig. 5, read-out: TNL AC50 (48 hr)
in vitro = conditions: PAMPA, PAMPA-BBB Pe
[2] = Table S1, 60 min, room temperature, 0.05 mM
[3] = Table S2: compounds exhibiting moderate to high PAMPA-BBB permeability
[4] = Table S3: compounds exhibiting low PAMPA-BBB permeability

Compound | PAMPA-BBB Pe(10^-6 cm/sec) [4] | PAMPA-BBB Pe [3] | other results
Cn1cccc1-c1cccnc1 [beta-NICOTYRINE] |  |  | AC50 [1]: 8.46 µM; Papp (in vitro; [2]): 102 ×10⁻⁶ cm/s
COC(=O)[C@@H]1[C@@H]2C[C@H]3c4[nH]c5ccccc5c4CCN3C[C@@H]2CC[C@@H]1O [Beta-yohimbine] |  |  | AC50 [1]: 11.8 µM; Papp (in vitro): 41.8 ×10⁻⁶ cm/s
CN1CCC2=C[C@@H](O)[C@@H]3OC(=O)c4cc5c(cc4[C@H]3C21)OCO5 (some centres unmarked) [NCGC00160234-01] |  |  | AC50 [1]: 2.22 µM; Papp (in vitro; [2]): 22.3 ×10⁻⁶ cm/s; Papp (in vitro; [3]): 22 ×10⁻⁶ cm/s
CC1(C)C=Cc2c(ccc(C(=O)/C=C/c3ccccc3)c2O)O1 [NCGC00187466-01] |  |  | AC50 [1]: 2.18 µM; Papp (in vitro; [2]): 10.2 ×10⁻⁶ cm/s
S=c1ccss1 [D3T, 3H-1,2-dithiole-3-thione] |  |  | AC50 [1]: 51.2 µM; Papp (in vitro; [2]): 97.8 ×10⁻⁶ cm/s
COc1cc2c(c(OC)c1OC)-c1c(cc(OC)c(OC)c1OC)C[C@H](C)[C@H](C)C2 [Deoxyschizandrin] |  |  | AC50 [1]: 15.9 µM; Papp (in vitro; [2]): 171 ×10⁻⁶ cm/s
CC1(C)OC1COc1c2occc2cc2ccc(=O)oc12 (centres unmarked) [NCGC00160222-01] |  |  | AC50 [1]: 24.5 µM; Papp (in vitro; [2]): 210 ×10⁻⁶ cm/s
c1cc2c(cc1[C@H]1OC[C@H]3[C@@H]1CO[C@@H]3c1ccc3c(c1)OCO3)OCO2 [Sesamin] |  |  | AC50 [1]: 14.2 µM; Papp (in vitro; [2]): 211 ×10⁻⁶ cm/s; Papp (in vitro; [3]): 211 ×10⁻⁶ cm/s
C=C(C)[C@H]1Cc2c(ccc3c2O[C@@H]2COc4cc(OC)c(OC)cc4[C@@H]2C3=O)O1 [rotenone, reference compound] |  |  | inhibition of cortical neurite outgrowth (total neurite length) ([1]; 24 and 48 h treatment, in words): inhibited cortical neurite outgrowth in a concentration-dependent manner
CC(=O)c1c(O)cccc1O [NCGC00166008-01] |  |  | AC50 [1]: 1.98 µM; Papp (in vitro; [2]): 44.7 ×10⁻⁶ cm/s
COc1cc(C)cc(O)c1 [3-methoxy-5-methylphenol] |  |  | AC50 [1]: 13.4 µM; Papp (in vitro; [2]): 49.7 ×10⁻⁶ cm/s
CCOc1ccc(O)cc1 [Hydroquinone monoethyl ether] |  |  | AC50 [1]: 13.6 µM; Papp (in vitro; [2]): 35 ×10⁻⁶ cm/s
CC(C)=CCOc1c2occc2cc2ccc(=O)oc12 [Imperatorin] |  |  | AC50 [1]: 16.7 µM; Papp (in vitro; [2]): 160 ×10⁻⁶ cm/s
Cc1cc(O)c2c(c1O)C(=O)C(O)=C(O)C2=O [NCGC00160271-01] | 4.8 10^-6 cm/sec |  | 
COc1cc2c(cc1OC)C(C(=O)c1ccc(OC)c(OC)c1O)=NCC2 [NCGC00160282-01] |  | 19 10^-6 cm/sec | 
COc1cc2c(cc1OC)C(=O)OC2 [NCGC00095581-04] |  | 12 10^-6 cm/sec | 
COc1ccc([C@@H](C)C(=O)c2ccc(O)cc2O)cc1 [NCGC00160149-03] |  | 345 10^-6 cm/sec | 
COc1cc(OC)c2c(c1)OC(c1ccccc1)CC2=O (centres unmarked) [NCGC00142553-05] |  | 176 10^-6 cm/sec | 
CC1(C)C(=O)C=C[C@@]2(C)C1C[C@@H](O)[C@]1(C)C2CC[C@@]2(C)[C@H](c3ccoc3)OC(=O)[C@H]3O[C@]321 (some centres unmarked) [NCGC00179150-03] |  | 108 10^-6 cm/sec | 
COc1ccccc1O[C@@H]1O[C@H](CO)[C@H](O)[C@H](O)[C@H]1O [NCGC00351878-01] | 1.5 10^-6 cm/sec |  | 
COc1c2ccoc2nc2c(OC)c(OC[C@@H](O)C(C)(C)O)ccc12 [NCGC00179458-02] |  | 12 10^-6 cm/sec | 
Cc1cc(O)c(C)c(O)c1C(=O)O [NCGC00095485-03] | <1 10^-6 cm/sec |  | 

Compound | PAMPA-BBB Pe(10^-6 cm/sec) [4] | PAMPA-BBB Pe [3] | other results
C[C@@H]1OC(O[C@H]2[C@H](Oc3cc(O)c4c(=O)c(O)c(-c5ccc(O)cc5)oc4c3)O[C@H](CO)[C@@H](O)[C@@H]2O)[C@H](O)[C@H](O)[C@H]1O (some centres unmarked) [NCGC00163581-01] | <1 10^-6 cm/sec |  | 
COc1cc(C/C=C\c2ccccc2)c(OC)cc1O [NCGC00160148-01] | 1.3 10^-6 cm/sec |  | 
COC(=O)c1c(C)c2c(c(C)c1O)OC(=O)c1c(C)c(Cl)c(O)c(Cl)c1O2 [NCGC00095464-04] |  | 281 10^-6 cm/sec | 
c1ccc2c3c([nH]c2c1)[C@H]1[C@@H]2CC[C@@H]([C@@H]4CCCN[C@@H]42)N1CC3 [NCGC00262532-02] | <1 10^-6 cm/sec |  | 
COc1ccc(C2CC(=O)c3ccc(OC)cc3O2)cc1 (centres unmarked) [NCGC00095734-01] | 5.8 10^-6 cm/sec |  | 
COc1ccc([C@H]2COc3c(ccc(O)c3OC)C2)c(OC)c1O [NCGC00179004-02] |  | 127 10^-6 cm/sec | 
COC(=O)C(O)C(O)(CCC(C)C)C(=O)OC1C(OC)=CC23CCCN2CCc2cc4c(cc2C13)OCO4 (centres unmarked) [NCGC00161614-01] | <1 10^-6 cm/sec |  | 
COC(=O)C1=CC[C@@]23CC[C@@H]([C@@](C)(/C=C/C=C(\C)C(=O)O)OC2=O)[C@@]3(OC(C)=O)CC1 [NCGC00344122-04] | <1 10^-6 cm/sec |  | 
COC(=O)C1=CO[C@@H](C)[C@@H]2CN3CC[C@]4(C(=O)Nc5c4ccc(OC)c5OC)[C@H]3C[C@H]12 [NCGC00160292-01] |  | 46 10^-6 cm/sec | 
COc1cc(C(O)CO)ccc1OS(=O)(=O)[O-].[K+] (centres unmarked) [NCGC00261311-01] | <1 10^-6 cm/sec |  | 
NC(=O)N1c2ccccc2C=Cc2ccccc21 [carbamazepine, reference compound] |  |  | PAMPA-BBB permeability category (PAMPA): moderate permeability
OC[C@H]1O[C@@H](Oc2cccc3ccccc23)[C@H](O)[C@@H](O)[C@H]1O [NCGC00351880-01] | <1 10^-6 cm/sec |  | 
Cc1cc(O)c(C=O)c(O)c1C(=O)O [NCGC00095742-01] | 2.7 10^-6 cm/sec |  | 
Cn1c2c(c(=O)c3ccccc31)C[C@@H](O)C(C)(C)O2 [NCGC00160238-01] | <1 10^-6 cm/sec |  | 
CCOC(=O)c1c(C)cc(OC)cc1O [NCGC00095529-01] |  | 290 10^-6 cm/sec | 
COc1ccc(-c2coc3cc(O)ccc3c2=O)c(O)c1O [NCGC00095474-02] |  | 14 10^-6 cm/sec | 
COc1ccc(C(=O)CC(=O)O)c2c1C=CC(C)(C)O2 [NCGC00074767-03] | <1 10^-6 cm/sec |  | 
COc1cc2oc(=O)c3c4c(cc5ccc(c1CCN(C)C)c2c53)OCO4 [NCGC00160212-01] | <1 10^-6 cm/sec |  | 
Cn1cnc2c(ncn2[C@@H]2O[C@H](CO)[C@@H](O)[C@H]2O)c1=N [NCGC00163305-01] | <1 10^-6 cm/sec |  | 
CN(N=O)c1cc(O)ccc1O [NCGC00261088-01] | <1 10^-6 cm/sec |  | 
CC1(C)C(=O)C=C[C@@]2(C)C1CC(=O)[C@]1(C)C2CC[C@@]2(C)[C@H](c3ccoc3)OC(=O)[C@H]3O[C@]321 (some centres unmarked) [NCGC00179119-02] | <1 10^-6 cm/sec |  | 
C=CC(O)C1OC1C=CC1OC1C(C)O (centres unmarked) [NCGC00263647-01] | <1 10^-6 cm/sec |  | 

Compound | PAMPA-BBB Pe(10^-6 cm/sec) [4] | PAMPA-BBB Pe [3] | other results
O=C1N[C@@H](Cc2c[nH]c3ccccc23)C(=O)N[C@H]1Cc1c[nH]c2ccccc12 [NCGC00160254-01] | <1 10^-6 cm/sec |  | 
COc1cc(C(=O)O[C@H]2CC(C)=CCC/C(C)=C/[C@@H](O)C2C(C)C)ccc1O (some centres unmarked) [NCGC00163636-01] |  | 88 10^-6 cm/sec | 
\LYCORINE HYDROCHLORIDE | 3.2 10^-6 cm/sec |  | 
O=C1CC[C@]23/C=C/C(=O)NCCCCNCCCNC(=O)/C=C/c4ccc(c2c4)O[C@@H]3C1 [NCGC00263997-01] | <1 10^-6 cm/sec |  | 
COc1cc2oc(=O)ccc2cc1O [NCGC00163577-02] | 2.2 10^-6 cm/sec |  | 
C[C@]12O[C@H](C[C@@]1(O)C(=O)O)n1c3ccccc3c3c4c(c5c6ccccc6n2c5c31)CNC4=O [NCGC00163504-01] | <1 10^-6 cm/sec |  | 
COc1cc2c(c3oc(=O)c4c(c13)CCC4=O)[C@@H]1CCO[C@@H]1O2 [DIHYDROAFLATOXINE B1] |  |  | PAMPA-BBB Pe(10^-6 cm/sec): 2.8 10^-6 cm/sec
C/C=C(/C)C(=O)O[C@H]1CC(C)=CC(=O)[C@@]2(C)CC[C@@](O)(C(C)C)[C@H]12 [NCGC00163582-01] |  | 125 10^-6 cm/sec | 
Cn1c(=O)c2c(ncn2C)n(C)c1=O [caffeine, reference compound] |  |  | PAMPA-BBB permeability category (PAMPA): low permeability
CC1(C)C=Cc2c(ccc(C(=O)/C=C/c3ccccc3)c2O)O1 [NCGC00187466-02] |  | 10 10^-6 cm/sec | 
COc1cc(-c2oc3cc(O)cc(O)c3c(=O)c2O[C@@H]2O[C@H](CO)[C@@H](O)[C@H](O)[C@H]2O)cc(OC)c1O [NCGC00163630-01] | <1 10^-6 cm/sec |  | 
COc1ccc(-c2cc(=O)c3c(O)cc(OC)c(OC)c3o2)c(OC)c1 [NCGC00263973-02] |  | 201 10^-6 cm/sec | 
Cc1nccc2c1[nH]c1ccccc12 [HARMAN] |  |  | PAMPA-BBB Pe (PAMPA): 60 10^-6 cm/sec
CO[C@H]1C=C2CCN(C)[C@H]2C2c3cc4c(cc3C(=O)O[C@@H]21)OCO4 (some centres unmarked) [NCGC00179416-02] |  | 19 10^-6 cm/sec | 
COc1ccc(-c2oc3cc(OC)c(OC)c(OC)c3c(=O)c2OC)cc1 [NCGC00264011-02] |  | 308 10^-6 cm/sec | 
NC(=O)Nc1ccc(Cl)c(Cl)c1 [NCGC00255466-01] |  | 148 10^-6 cm/sec | 
COc1cc(=O)n(C)c2c(OCC3OC(C)(C)OC3(C)C)cccc12 (centres unmarked) [NCGC00160200-01] |  | 106 10^-6 cm/sec | 
COc1ccc([C@@H]2[C@@H](O)[C@H](O)[C@@H](C)N2C)cc1OC [NCGC00160242-01] | 1.3 10^-6 cm/sec |  | 
Nc1ncnc2c1ncn2[C@@H]1O[C@H](COP(=O)(O)OP(=O)(O)OC[C@H]2OC(O)[C@H](O)[C@@H]2O)[C@@H](O)[C@H]1O (some centres unmarked) [NCGC00163321-01] | <1 10^-6 cm/sec |  | 
O=C/C=C/c1ccc(O)cc1 [NCGC00095729-01] | 4.5 10^-6 cm/sec |  | 
CCCc1cc(=O)c2ccccc2n1C [NCGC00351153-01] |  | 137 10^-6 cm/sec | 
O=C(OC[C@H]1O[C@H](OC(=O)c2cc(O)c(O)c(OC(=O)c3cc(O)c(O)c(O)c3)c2)[C@H](OC(=O)c2cc(O)c(O)c(OC(=O)c3cc(O)c(O)c(O)c3)c2)[C@@H](OC(=O)c2cc(O)c(O)c(OC(=O)c3cc(O)c(O)c(O)c3)c2)[C@@H]1OC(=O)c1cc(O)c(O)c(OC(=O)c2cc(O)c(O)c(O)c2)c1)c1cc(O)c(O)c(OC(=O)c2cc(O)c(O)c(O)c2)c1 [NCGC00263877-02] | <1 10^-6 cm/sec |  | 
